For 35 molecules, IC50 results are on record in US9255090B2, “Heterocyclyl derivatives and their use as prostaglandin D2 receptor modulators” (Actelion Pharmaceuticals Ltd., priority 2012, dated 2016).

For the assay, the target named is hCRTH2 receptor (Homo sapiens (Human), UniProt Q9Y5Y4). The experiment in a line: hCRTH2 receptor membranes radioligand (3H-PGD2) displacement assay. The class given is binding. Conditions: 3H-PGD2 radioligand displacement, HEK293-hCRTH2 membranes. A digest of the protocol:
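Compound was first mixed with buffer, then 3H-PGD2 was added at 2.5 nM, and the reaction was started with hCRTH2 membranes from HEK293 cells at 20 μg/well. After 90 min at room temperature, mixtures were filtered and washed with ice-cold buffer, and retained radioactivity was counted.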
A general note: Displacement assays read how much labelled ligand stays bound in the presence of the test substance.

Sequence of hCRTH2 receptor (Q9Y5Y4 whole entry): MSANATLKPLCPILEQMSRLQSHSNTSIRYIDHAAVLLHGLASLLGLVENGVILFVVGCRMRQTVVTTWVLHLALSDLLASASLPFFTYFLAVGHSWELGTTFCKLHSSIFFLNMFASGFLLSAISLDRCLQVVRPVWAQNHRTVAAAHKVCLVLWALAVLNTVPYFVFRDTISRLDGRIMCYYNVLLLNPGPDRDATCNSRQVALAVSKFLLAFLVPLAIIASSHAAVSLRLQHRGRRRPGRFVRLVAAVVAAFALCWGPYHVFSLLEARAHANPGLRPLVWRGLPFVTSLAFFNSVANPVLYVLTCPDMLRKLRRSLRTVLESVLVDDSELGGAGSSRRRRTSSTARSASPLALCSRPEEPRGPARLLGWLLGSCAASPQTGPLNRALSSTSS

In the case of `COc1ccc(CC(=O)O)cc1-c1ccc(Cl)c2c1CN(C(=O)CCN1CCc3ccccc31)CC2` [Example 78, {3-[5-Chloro-2-(3-2,3-dihydro-indol-1-yl-propionyl)-1,2,3,4-tetrahydro-isoquinolin-8-yl]-4-methoxy-phenyl}-acetic acid], the IC50 (commonly the point on the concentration scale where inhibition reaches its midpoint) turned out to be 61.5 nM.
For the molecule `COc1ccc(CC(=O)O)cc1-c1ccc(F)c2c1CN(C(=O)CC(C)(O)c1ccccc1)CC2` (racemic) [Example 256], the IC50 amounted to 49.8 nM.
`CCOc1ccc(CC(=O)O)cc1-c1ccc(F)c2c1CN(C(=O)OCCC(C)(C)OC)CC2` [Example 383, 8-(5-Carboxymethyl-2-ethoxy-phenyl)-5-fluoro-3,4-dihydro-1H-isoquinoline-2-carboxylic acid 3-methoxy-3-methyl-butyl ester]: the IC50 amounted to 19 nM.
`COc1ccc(CC(=O)O)cc1-c1ccc(F)c2c1CN(C(=O)CC1c3ccccc3CCN1C)CC2` (racemic) [Example 259] displayed an IC50 of 587 nM.
For the molecule `COc1ccc(CC(=O)O)cc1-c1ccc(F)c2c1CN(C(=O)[C@@H]1C[C@H]1c1ccccc1C)CC2` (racemic) [Example 6, (±)-{3-[5-Fluoro-2-(trans-2-o-tolyl-cyclopropanecarbonyl)-1,2,3,4-tetrahydro-isoquinolin-8-yl]-4-methoxy-phenyl}-acetic acid], the half-maximal inhibitory concentration (IC50) was 4.22 nM. This IC50 lies about 140-fold lower than the previous one.
The molecule `COc1cc(CC(=O)O)cc(OC)c1-c1ccc(F)c2c1CN(C(=O)OCc1ccccc1)CC2` [Example 218, 8-(4-Carboxymethyl-2,6-dimethoxy-phenyl)-5-fluoro-3,4-dihydro-1H-isoquinoline-2-carboxylic acid benzyl ester] displayed an IC50 of 1.7 nM.
Then `O=C(O)Cc1ccc(OCC(F)(F)F)c(-c2ccc(F)c3c2CN(C(=O)CC2OCCc4ccccc42)CC3)c1` (racemic) [Example 306], with 7.4 nM; and `COc1ccc(CC(=O)O)cc1-c1ccc(F)c2c1CN(C(=O)OCC(C)C)CC2` [Example 142, 8-(5-Carboxymethyl-2-methoxy-phenyl)-5-fluoro-3,4-dihydro-1H-isoquinoline-2-carboxylic acid isobutyl ester], with 148 nM; and `O=C(O)Cc1cc2c(c(-c3ccc(F)c4c3CN(C(=O)OCc3ccccc3)CC4)c1)OCO2` [Example 167, 8-(6-Carboxymethyl-benzo[1,3]dioxol-4-yl)-5-fluoro-3,4-dihydro-1H-isoquinoline-2-carboxylic acid benzyl ester], with 15.4 nM.
As for `COc1ccc(CC(=O)O)cc1-c1ccc(F)c2c1CN(C(=O)COc1cccnc1)CC2` [Example 94, (3-{5-Fluoro-2-[2-(pyridin-3-yloxy)-acetyl]-1,2,3,4-tetrahydro-isoquinolin-8-yl}-4-methoxy-phenyl)-acetic acid], the IC50 was 418 nM.
Then `O=C(O)Cc1cc(-c2ccc(F)c3c2CN(C(=O)OCc2ccccc2)CC3)ccc1F` [Example 12, 8-(3-Carboxymethyl-4-fluoro-phenyl)-5-fluoro-3,4-dihydro-1H-isoquinoline-2-carboxylic acid benzyl ester], with 21.8 nM; and `COc1ccccc1CNC(=O)N1CCc2c(F)ccc(-c3cc(CC(=O)O)ccc3OC)c2C1` [Example 135, {3-[5-Fluoro-2-(2-methoxy-benzylcarbamoyl)-1,2,3,4-tetrahydro-isoquinolin-8-yl]-4-methoxy-phenyl}-acetic acid], with 19.6 nM.
The figure for `CC(C)Oc1ccc(CC(=O)O)cc1-c1ccc(F)c2c1CN(C(=O)CC1CCOc3ccccc31)CC2` (racemic) [Example 290] is 5 nM; for `COc1ccc(CC(=O)O)cc1-c1ccc(F)c2c1CN(C(=O)C1CCc3ccccc31)CC2` (racemic) [Example 112, (±)-{3-[5-Fluoro-2-(indane-1-carbonyl)-1,2,3,4-tetrahydro-isoquinolin-8-yl]-4-methoxy-phenyl}-acetic acid] it is 202 nM.
Then `COc1ccc(CC(=O)O)cc1-c1ccc(F)c2c1CN(C(=O)CCn1ncc3ccccc31)CC2` [Example 67, {3-[5-Fluoro-2-(3-indazol-1-yl-propionyl)-1,2,3,4-tetrahydro-isoquinolin-8-yl]-4-methoxy-phenyl}-acetic acid], with 21.6 nM; and `CCOc1ccc(CC(=O)O)cc1-c1ccc(F)c2c1CN(C(=O)CC(C)c1nccs1)CC2` (racemic) [Example 283], with 7.2 nM.
`COc1ccc(CC(=O)O)cc1-c1c(F)ccc2c1CN(C(=O)OCc1ccccc1)CC2` [Example 33, 8-(5-Carboxymethyl-2-methoxy-phenyl)-7-fluoro-3,4-dihydro-1H-isoquinoline-2-carboxylic acid benzyl ester] registered an IC50 of 113 nM.
Consider `COc1cccc(OCC(=O)O)c1-c1ccc(F)c2c1CN(C(=O)OCc1ccccc1)CC2` [Example 417, 8-(2-Carboxymethoxy-6-methoxy-phenyl)-5-fluoro-3,4-dihydro-1H-isoquinoline-2-carboxylic acid benzyl ester], for which the IC50 came to 23.5 nM. This IC50 is about 4.8-fold lower than that of the molecule before.
The figure for `COc1ccc(CC(=O)O)cc1-c1ccc(F)c2c1CN(C(=O)C1Cc3ccccc3CO1)CC2` (racemic) [Example 274] is 58.2 nM; for `COc1ccc(CC(=O)O)cc1-c1ccc(F)c2c1CN(C(=O)Cc1noc3ccccc13)CC2` [Example 121, {3-[2-(2-Benzo[d]isoxazol-3-yl-acetyl)-5-fluoro-1,2,3,4-tetrahydro-isoquinolin-8-yl]-4-methoxy-phenyl}-acetic acid] it is 47.2 nM.
Molecule `CCOc1ccc(CC(=O)O)cc1-c1ccc(F)c2c1CN(C(=O)CC1(c3ccccc3F)CC1)CC2` [Example 276, [4-Ethoxy-3-(5-fluoro-2-{2-[1-(2-fluoro-phenyl)-cyclopropyl]-acetyl}-1,2,3,4-tetrahydro-isoquinolin-8-yl)-phenyl]-acetic acid] gave an IC50 of 35.9 nM.
Then `COc1ccc(CC(=O)O)cc1-c1ccc(F)c2c1CN(C(=O)NCc1ccccc1Cl)CC2` [Example 134, {3-[2-(2-Chloro-benzylcarbamoyl)-5-fluoro-1,2,3,4-tetrahydro-isoquinolin-8-yl]-4-methoxy-phenyl}-acetic acid], with 21.5 nM.
Then `CCOc1cc(CC(=O)O)ccc1-c1ccc(F)c2c1CN(C(=O)Cc1ccccn1)CC2` [Example 342, {3-Ethoxy-4-[5-fluoro-2-(2-pyridin-2-yl-acetyl)-1,2,3,4-tetrahydro-isoquinolin-8-yl]-phenyl}-acetic acid], with 150 nM; and `CCOc1cc(CC(=O)O)ccc1-c1ccc(F)c2c1CN(C(=O)NCc1cccc(F)c1)CC2` [Example 441, {3-Ethoxy-4-[5-fluoro-2-(3-fluoro-benzylcarbamoyl)-1,2,3,4-tetrahydro-isoquinolin-8-yl]-phenyl}-acetic acid], with 17.5 nM; and `COc1ccc(CC(=O)O)cc1-c1ccc(OC)c2c1CN(C(=O)OCc1ccccc1)CC2` [Example 156, 8-(5-Carboxymethyl-2-methoxy-phenyl)-5-methoxy-3,4-dihydro-1H-isoquinoline-2-carboxylic acid benzyl ester], with 251 nM.
Molecule `CCOc1ccc(CC(=O)O)cc1-c1ccc(F)c2c1CN(C(=O)CC(C)c1ccc(F)cc1)CC2` (centres unmarked) [Example 212, (4-Ethoxy-3-{5-fluoro-2-[3-(4-fluoro-phenyl)-butyryl]-1,2,3,4-tetrahydro-isoquinolin-8-yl}-phenyl)-acetic acid] returned an IC50 of 11.4 nM. Compared with the last molecule, the IC50 is about 22-fold lower.
Turning to `CCOc1cc(CC(=O)O)ccc1-c1ccc(F)c2c1CN(C(=O)/C=C/c1ccccn1)CC2` [Example 338, {3-Ethoxy-4-[5-fluoro-2-((E)-3-pyridin-2-yl-acryloyl)-1,2,3,4-tetrahydro-isoquinolin-8-yl]-phenyl}-acetic acid], the IC50 was 2.3 nM.
The molecule `O=C(O)Cc1ccc(C(F)(F)F)c(-c2ccc(F)c3c2CN(C(=O)OCc2ccccc2)CC3)c1` [Example 8, 8-(5-Carboxymethyl-2-trifluoromethyl-phenyl)-5-fluoro-3,4-dihydro-1H-isoquinoline-2-carboxylic acid benzyl ester] showed an IC50 of 7.31 nM.
Then `O=C(O)COc1ccc(Cl)c(-c2ccc(Cl)c3c2CN(C(=O)OCc2ccccc2)CC3)c1` [Example 178, 8-(5-Carboxymethoxy-2-chloro-phenyl)-5-chloro-3,4-dihydro-1H-isoquinoline-2-carboxylic acid benzyl ester], with 17.5 nM; and `CC(C)Oc1ccc(CC(=O)O)cc1-c1ccc(F)c2c1CN(C(=O)[C@@H]1C[C@H]1c1ccccc1)CC2` [Example 27, {3-[5-Fluoro-2-((1R,2R)-2-phenyl-cyclopropanecarbonyl)-1,2,3,4-tetrahydro-isoquinolin-8-yl]-4-isopropoxy-phenyl}-acetic acid], with 12.9 nM.
`CCOc1cc(CC(=O)O)ccc1-c1ccc(F)c2c1CN(C(=O)OCC1CCCC1)CC2` [Example 392, 8-(4-Carboxymethyl-2-ethoxy-phenyl)-5-fluoro-3,4-dihydro-1H-isoquinoline-2-carboxylic acid cyclopentylmethyl ester]: the IC50 was determined as 5.9 nM.
Then `CCOc1cc(CC(=O)O)ccc1-c1ccc(F)c2c1CN(C(=O)CC1COCc3ccccc31)CC2` (racemic) [Example 232], with 0.6 nM; and `COc1ccc(C(C)C(=O)O)cc1-c1ccc(F)c2c1CN(C(=O)OCc1ccccc1F)CC2` (racemic) [Example 140, (±)-8-[5-(1-Carboxy-ethyl)-2-methoxy-phenyl]-5-fluoro-3,4-dihydro-1H-isoquinoline-2-carboxylic acid 2-fluoro-benzyl ester], with 62.6 nM.
Molecule `CCOc1cc(CC(=O)O)ccc1-c1ccc(F)c2c1CN(C(=O)CCc1ccccn1)CC2` [Example 349, {3-Ethoxy-4-[5-fluoro-2-(3-pyridin-2-yl-propionyl)-1,2,3,4-tetrahydro-isoquinolin-8-yl]-phenyl}-acetic acid] came in with an IC50 of 0.5 nM. Against the preceding molecule, the IC50 is about 130-fold lower.
Then `COc1ccc(CC(=O)O)cc1-c1ccc(Cl)c2c1CN(C(=O)CCCc1ccccc1F)CC2` [Example 74, (3-{5-Chloro-2-[4-(2-fluoro-phenyl)-butyryl]-1,2,3,4-tetrahydro-isoquinolin-8-yl}-4-methoxy-phenyl)-acetic acid], with 10.5 nM.
